We go through one compound from PubChem BioAssay AID1745844 (Carcinogenic Potency Database (CPDB), 2022).

In the series the test system is rodent lifetime carcinogenesis bioassay, tumor incidence TD50. The series can be described thus: carcinogenic potency in animals, long-term in vivo studies, CPDB compilation (AID 1745844). To be noted: inhaled.

As a reminder, the TD50 is the dose at which the toxic effect under study appears in half of the subjects. As to `ClC#CCl`, the TD50 runs as follows: (mouse, strain NMRI, females, site: Harderian gland, lesion: cystadenoma, dosed 52 weeks, study length 98 weeks) 3.02 mg/kg/day; (mouse, strain NMRI, females, site: Harderian gland, lesion: cystadenoma, dosed 78 weeks, study length 119 weeks) 0.55 mg/kg/day; (mouse, strain NMRI, females, site: Harderian gland, lesion: cystadenoma, dosed 78 weeks, study length 129 weeks) 0.499 mg/kg/day; (mouse, strain NMRI, females, site: kidney, lesion: cystadenoma, dosed 52 weeks, study length 98 weeks) 1.03 mg/kg/day; (mouse, strain NMRI, females, site: kidney, lesion: cystadenoma, dosed 78 weeks, study length 119 weeks) 1.08 mg/kg/day; (mouse, strain NMRI, females, site: kidney, lesion: cystadenoma, dosed 78 weeks, study length 129 weeks) 7.8 mg/kg/day. Also, the TD50 is, setting by setting: (mouse, strain NMRI, females, site: lung, lesion: adenoma, dosed 78 weeks, study length 119 weeks) 2.73 mg/kg/day; (mouse, strain NMRI, males, site: Harderian gland, lesion: cystadenoma, dosed 78 weeks, study length 118 weeks) 0.687 mg/kg/day; (mouse, strain NMRI, males, site: Harderian gland, lesion: cystadenoma, dosed 78 weeks, study length 127 weeks) 1.01 mg/kg/day; (mouse, strain NMRI, males, site: kidney, lesion: cystadenocarcinoma, dosed 52 weeks, study length 92 weeks) 3.89 mg/kg/day; (mouse, strain NMRI, males, site: kidney, lesion: cystadenocarcinoma, dosed 78 weeks, study length 118 weeks) 4.52 mg/kg/day; (mouse, strain NMRI, males, site: kidney, lesion: cystadenocarcinoma, dosed 78 weeks, study length 127 weeks) 0.501 mg/kg/day. Besides, the TD50 was 0.486 mg/kg/day (mouse, strain NMRI, males, site: kidney, lesion: cystadenoma, dosed 52 weeks, study length 92 weeks); 0.769 mg/kg/day (mouse, strain NMRI, males, site: kidney, lesion: cystadenoma, dosed 78 weeks, study length 118 weeks); 0.466 mg/kg/day (mouse, strain NMRI, males, site: kidney, lesion: cystadenoma, dosed 78 weeks, study length 127 weeks); 3.86 mg/kg/day (rat, strain Wistar, females, site: all sites, lesion: malignant lymphoma, dosed 78 weeks, study length 150 weeks); 11.5 mg/kg/day (rat, strain Wistar, females, site: kidney, lesion: cystadenoma, dosed 78 weeks, study length 150 weeks); 3.86 mg/kg/day (rat, strain Wistar, females, site: liver, lesion: cholangioma, dosed 78 weeks, study length 150 weeks). Further, the TD50 by setting is: (rat, strain Wistar, females, site: liver, lesion: hepatocellular adenoma, dosed 78 weeks, study length 150 weeks) 17.5 mg/kg/day; (rat, strain Wistar, males, site: kidney, lesion: cystadenocarcinoma, dosed 78 weeks, study length 157 weeks) 26.2 mg/kg/day; (rat, strain Wistar, males, site: kidney, lesion: cystadenoma, dosed 78 weeks, study length 157 weeks) 3.34 mg/kg/day; (rat, strain Wistar, males, site: liver, lesion: cholangioma, dosed 78 weeks, study length 157 weeks) 3.97 mg/kg/day; (rat, strain Wistar, males, site: liver, lesion: hepatocellular adenoma, dosed 78 weeks, study length 157 weeks) 12.9 mg/kg/day. Moreover, the carcinogen call (mouse, strain NMRI, males, site: Harderian gland, lesion: cystadenoma, dosed 52 weeks, study length 92 weeks) was “positive”.
